Results from patent US10093630B2, “Pyrazole compounds and methods of making and using same” (ABIDE THERAPEUTICS, INC., priority 2014, dated 2018).

Legend:
Experiment in all cases: In vitro competitive activity-based protein profiling (gel-based, FP-Rh or HT-01 probe)
Format in all cases: biochemical
ABHD6 = target: T1, ABHD6 (Mus musculus, UniProt Q8R2Y0); conditions: for inhibition at 1 µM: 1 μM inhibitor, read-out: % Inhibition at 1 μM, C = ABHD6; for inhibition at 10 µM: 10 μM inhibitor, read-out: % Inhibition at 10 μM, C = ABHD6
T1 construct: Proteomes (mouse brain membrane fraction or cell lysates); from tissue; host or cells: mouse brain membrane fraction (or cell lysates, not specified)
T1 sequence (Q8R2Y0 1-336): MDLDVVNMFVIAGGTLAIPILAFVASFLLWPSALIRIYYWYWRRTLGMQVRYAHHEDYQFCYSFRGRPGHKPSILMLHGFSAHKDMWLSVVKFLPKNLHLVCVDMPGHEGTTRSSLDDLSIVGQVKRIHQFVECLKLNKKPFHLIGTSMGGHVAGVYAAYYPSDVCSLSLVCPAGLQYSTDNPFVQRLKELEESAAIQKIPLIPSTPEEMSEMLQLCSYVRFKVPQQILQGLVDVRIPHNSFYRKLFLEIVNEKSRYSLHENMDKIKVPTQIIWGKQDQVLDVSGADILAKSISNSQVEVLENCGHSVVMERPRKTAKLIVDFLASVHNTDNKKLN
In short: (§1)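 Mouse brain membrane or cell lysate proteomes (1.0 mg/mL) preincubated with inhibitors 30 min at 37° C, then labelled with FP-Rh or HT-01 for 30 min at 37° C. After SDS-PAGE, activity quantified from fluorescent band intensity.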

FAAH = target: T2, FAAH (Mus musculus, UniProt O08914); conditions: for inhibition at 1 µM: 1 μM inhibitor, read-out: % Inhibition at 1 μM, B = FAAH; for inhibition at 10 µM: 10 μM inhibitor, read-out: % Inhibition at 10 μM, B = FAAH
T2 construct: Proteomes (mouse brain membrane fraction or cell lysates); from tissue; host or cells: mouse brain membrane fraction (or cell lysates, not specified)
T2 sequence (O08914 1-579): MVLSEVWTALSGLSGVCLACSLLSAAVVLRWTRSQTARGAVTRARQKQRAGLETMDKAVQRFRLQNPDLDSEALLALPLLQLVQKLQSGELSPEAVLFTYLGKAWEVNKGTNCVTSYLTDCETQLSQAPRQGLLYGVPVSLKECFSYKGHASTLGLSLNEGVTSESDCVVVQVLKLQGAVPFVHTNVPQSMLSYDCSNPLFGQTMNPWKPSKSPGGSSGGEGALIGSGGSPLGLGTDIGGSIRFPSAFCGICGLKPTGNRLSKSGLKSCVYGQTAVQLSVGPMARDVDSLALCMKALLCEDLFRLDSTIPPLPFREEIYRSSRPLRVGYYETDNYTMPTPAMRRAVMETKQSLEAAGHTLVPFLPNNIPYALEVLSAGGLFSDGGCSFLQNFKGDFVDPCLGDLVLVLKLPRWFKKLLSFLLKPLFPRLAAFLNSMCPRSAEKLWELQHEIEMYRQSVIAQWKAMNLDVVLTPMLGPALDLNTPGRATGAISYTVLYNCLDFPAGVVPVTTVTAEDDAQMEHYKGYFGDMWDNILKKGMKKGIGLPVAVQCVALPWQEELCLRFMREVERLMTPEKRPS
In short: as §1

MAGL = target: T3, MAGL (Mus musculus, UniProt O35678); conditions: for inhibition at 1 µM: 1 μM inhibitor; for inhibition at 10 µM: 10 μM inhibitor
T3 construct: Proteomes (mouse brain membrane fraction or cell lysates); from tissue; host or cells: mouse brain membrane fraction (or cell lysates, not specified)
T3 sequence (O35678 1-303): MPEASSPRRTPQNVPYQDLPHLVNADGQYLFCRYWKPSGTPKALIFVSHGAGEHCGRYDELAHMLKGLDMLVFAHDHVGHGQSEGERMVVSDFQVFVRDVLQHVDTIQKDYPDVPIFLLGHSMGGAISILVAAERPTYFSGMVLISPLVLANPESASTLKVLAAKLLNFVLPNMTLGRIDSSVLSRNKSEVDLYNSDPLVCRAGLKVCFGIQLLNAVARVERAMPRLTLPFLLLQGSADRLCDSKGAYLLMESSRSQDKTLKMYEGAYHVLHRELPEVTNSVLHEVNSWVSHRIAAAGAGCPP
In short: as §1

PLA2G7 = target: T4, PLA2G7 (Mus musculus, UniProt Q60963); conditions: for inhibition at 1 µM: 1 μM inhibitor, read-out: % Inhibition at 1 μM, D = PLA2G7; for inhibition at 10 µM: 10 μM inhibitor, read-out: % Inhibition at 10 μM, D = PLA2G7
T4 construct: Proteomes (mouse brain membrane fraction or cell lysates); from tissue; host or cells: mouse brain membrane fraction (or cell lysates, not specified)
T4 sequence (Q60963 22-440): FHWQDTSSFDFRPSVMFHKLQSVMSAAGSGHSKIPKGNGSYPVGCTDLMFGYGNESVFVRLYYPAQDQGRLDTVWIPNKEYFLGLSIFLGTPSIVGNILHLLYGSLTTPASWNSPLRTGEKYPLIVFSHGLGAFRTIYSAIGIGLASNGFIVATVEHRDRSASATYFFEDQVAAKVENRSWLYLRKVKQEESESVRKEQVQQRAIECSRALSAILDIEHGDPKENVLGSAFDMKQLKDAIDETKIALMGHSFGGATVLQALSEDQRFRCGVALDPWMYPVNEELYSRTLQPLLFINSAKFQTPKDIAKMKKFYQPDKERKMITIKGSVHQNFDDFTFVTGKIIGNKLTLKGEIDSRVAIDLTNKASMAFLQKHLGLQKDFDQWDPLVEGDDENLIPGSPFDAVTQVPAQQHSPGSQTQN
In short: as §1

Compound	inhibition at 1 µM (ABHD6) [%]	inhibition at 10 µM (ABHD6) [%]	IC50 (ABHD6; mouse brain membrane fraction or cell lysates, 30 min preincubation at 37° C., read-out: Mouse (IC50 value, nM) ABHD6) [nM]	inhibition at 1 µM (FAAH) [%]	inhibition at 10 µM (FAAH) [%]	IC50 (FAAH; mouse brain membrane fraction or cell lysates, 30 min preincubation at 37° C., read-out: Mouse (IC50 value, nM) FAAH) [nM]	inhibition at 1 µM (MAGL) [%]	inhibition at 10 µM (MAGL) [%]	IC50 (MAGL; mouse brain membrane fraction or cell lysates, 30 min preincubation at 37° C., read-out: Mouse (IC50 value, nM) MAGL) [nM]	inhibition at 1 µM (PLA2G7) [%]	inhibition at 10 µM (PLA2G7) [%]	IC50 (PLA2G7; mouse brain membrane fraction or cell lysates, 30 min preincubation at 37° C.) [nM]
COc1cccc(N2CCN(C(=O)n3cc(C(F)(F)F)cn3)CC2)c1 [Example 234, (4-(3-Methoxyphenyl)piperazin-1-yl)(4-(trifluoromethyl)-1H-pyrazol-1-yl)methanone]	> 75	> 75	< 100	> 75	> 75	< 100	> 75	> 75	< 100	> 75	> 75	< 100
O=C(N1CCN(c2ccccc2N2CCOCC2)CC1)n1cc(C(F)(F)F)cn1 [Example 236, (4-(2-Morpholinophenyl)piperazin-1-yl)(4-(trifluoromethyl)-1H-pyrazol-1-yl)methanone]	> 75	> 75		25 to 75	> 75		> 75	> 75		> 75	> 75	
Cc1cc(N2CCN(C(=O)n3cc(Cl)cn3)CC2)c2ccccc2n1 [Example 208, (4-Chloro-1H-pyrazol-1-yl)(4-(2-methylquinolin-4-yl)piperazin-1-yl)methanone]	> 75	> 75		> 75	> 75		> 75	> 75		> 75	> 75	
O=C(N1CCCC1)n1cc(-c2ccc(-c3ccccc3)cc2)cn1 [Example 106, (4-([1,1′-Biphenyl]-4-yl)-1H-pyrazol-1-yl)(pyrrolidin-1-yl)methanone]	25 to 75	> 75			< 25			< 25		< 25	25 to 75	
